Laboratory results taken from the NIST ThermoML archive (doi:10.1021/je9002114).

Columns and labels:
[1] = 298.15 K; for surface tension liquid-gas: Ring tensiometer; for mass density: 101.33 kPa, Liquid
[2] = xn = mol fraction of the nth substance listed; settings: 298.15 K, Ring tensiometer

C1COCCO1 [1,4-dioxane]
[1]
Settings | mass density [kg/m3] | surface tension liquid-gas [mN/m]
– | 1027.82 | 32.71

CCCCOC(C)=O [butyl ethanoate]
[1]
Settings | mass density [kg/m3] | surface tension liquid-gas [mN/m]
– | 876.38 | 24.85

CCCCOC(C)=O [butyl ethanoate] + C1COCCO1
[2]
Settings | surface tension liquid-gas [mN/m]
x1 = 0.05 | 31.19
x1 = 0.0975 | 30.51
x1 = 0.1457 | 29.87
x1 = 0.1995 | 29.32
x1 = 0.2485 | 28.88
x1 = 0.2883 | 28.55
x1 = 0.3445 | 28.13
x1 = 0.3932 | 27.79
x1 = 0.4475 | 27.47
x1 = 0.4929 | 27.21
x1 = 0.5486 | 26.93
x1 = 0.592 | 26.69
x1 = 0.6429 | 26.45
x1 = 0.6933 | 26.2
x1 = 0.7466 | 25.97
x1 = 0.7954 | 25.8
x1 = 0.8438 | 25.56
x1 = 0.8901 | 25.36
x1 = 0.9419 | 25.16

CCCCOC(C)=O [butyl ethanoate] + CN(C)C=O
[2]
Settings | surface tension liquid-gas [mN/m]
x1 = 0.0508 | 35.02
x1 = 0.0995 | 33.45
x1 = 0.1441 | 32.35
x1 = 0.1809 | 31.7
x1 = 0.25 | 30.5
x1 = 0.2962 | 29.75
x1 = 0.3447 | 29.19
x1 = 0.3904 | 28.66
x1 = 0.4455 | 28.19
x1 = 0.4954 | 27.69
x1 = 0.5443 | 27.35
x1 = 0.5956 | 27.07
x1 = 0.648 | 26.66
x1 = 0.6993 | 26.36
x1 = 0.7466 | 26.16
x1 = 0.7935 | 25.81
x1 = 0.8467 | 25.65
x1 = 0.8983 | 25.47
x1 = 0.9464 | 25.26

CN(C)C=O [dimethylformamide]
[1]
Settings | mass density [kg/m3] | surface tension liquid-gas [mN/m]
– | 943.81 | 36.98

CCCCCCOC(C)=O [hexyl ethanoate]
[1]
Settings | mass density [kg/m3] | surface tension liquid-gas [mN/m]
– | 868.52 | 26.39

CCCCCCOC(C)=O [hexyl ethanoate] + C1COCCO1
[2]
Settings | surface tension liquid-gas [mN/m]
x1 = 0.0467 | 32.56
x1 = 0.0925 | 32.06
x1 = 0.1414 | 31.56
x1 = 0.1905 | 31.1
x1 = 0.2422 | 30.62
x1 = 0.2921 | 30.17
x1 = 0.3417 | 29.79
x1 = 0.3934 | 29.43
x1 = 0.4434 | 29.11
x1 = 0.495 | 28.81
x1 = 0.5433 | 28.56
x1 = 0.5962 | 28.29
x1 = 0.6408 | 28.09
x1 = 0.6859 | 27.91
x1 = 0.7406 | 27.71
x1 = 0.7981 | 27.52
x1 = 0.8426 | 27.38
x1 = 0.8954 | 27.22
x1 = 0.9448 | 27.12

CCCCCCOC(C)=O [hexyl ethanoate] + CN(C)C=O
[2]
Settings | surface tension liquid-gas [mN/m]
x1 = 0.0495 | 35.78
x1 = 0.0964 | 35.06
x1 = 0.1435 | 34.43
x1 = 0.198 | 33.72
x1 = 0.2432 | 33.16
x1 = 0.299 | 32.51
x1 = 0.349 | 31.96
x1 = 0.397 | 31.46
x1 = 0.444 | 31.02
x1 = 0.4969 | 30.57
x1 = 0.5461 | 30.12
x1 = 0.5945 | 29.72
x1 = 0.6434 | 29.35
x1 = 0.6908 | 29.01
x1 = 0.7457 | 28.61
x1 = 0.7896 | 28.31
x1 = 0.8466 | 27.99
x1 = 0.8951 | 27.67
x1 = 0.9494 | 27.41

CCCCCOC(C)=O [pentyl ethanoate]
[1]
Settings | mass density [kg/m3] | surface tension liquid-gas [mN/m]
– | 870.17 | 25.21

CCCCCOC(C)=O [pentyl ethanoate] + C1COCCO1
[2]
Settings | surface tension liquid-gas [mN/m]
x1 = 0.05 | 32.35
x1 = 0.1026 | 31.65
x1 = 0.1516 | 31.05
x1 = 0.2062 | 30.52
x1 = 0.2562 | 30.05
x1 = 0.311 | 29.48
x1 = 0.3637 | 29.01
x1 = 0.4209 | 28.58
x1 = 0.4616 | 28.27
x1 = 0.5112 | 27.92
x1 = 0.5614 | 27.55
x1 = 0.6136 | 27.3
x1 = 0.6558 | 27.07
x1 = 0.7043 | 26.89
x1 = 0.7538 | 26.71
x1 = 0.8033 | 26.56
x1 = 0.8511 | 26.39
x1 = 0.8956 | 26.26
x1 = 0.9449 | 26.12

CCCCCOC(C)=O [pentyl ethanoate] + CN(C)C=O
[2]
Settings | surface tension liquid-gas [mN/m]
x1 = 0.05 | 34.9
x1 = 0.0941 | 34.08
x1 = 0.1466 | 33.24
x1 = 0.198 | 32.24
x1 = 0.2452 | 31.67
x1 = 0.2909 | 30.99
x1 = 0.3496 | 30.37
x1 = 0.3978 | 29.95
x1 = 0.4481 | 29.3
x1 = 0.4998 | 28.87
x1 = 0.5453 | 28.59
x1 = 0.5998 | 28.05
x1 = 0.6445 | 27.78
x1 = 0.6901 | 27.39
x1 = 0.7499 | 27.09
x1 = 0.7958 | 26.83
x1 = 0.8477 | 26.51
x1 = 0.8965 | 26.23
x1 = 0.9397 | 26.09
